Several values for one entry are separate records, joined by “and”; a condition that tells them apart may be missing. Equal values may be shown once. Read-outs that look alike come from different tables or passages of the source.
Columns and labels:
A2a-adenosine receptor = molecular target: T1, A2a-adenosine receptor (Rattus norvegicus, UniProt P30543); experiment: Inhibition of [3H]CGS 21680 binding to A2a receptors; details: rat striatal membranes, 5 nM [3H]CGS 21680; read-out: Ki, μM(A2)
T1 construct: Rat cerebral cortical membranes and striatal membranes were prepared; from tissue; host or cells: rat striatal membranes
Description: (§1) Solid samples of the adenosine derivatives were dissolved in dimethyl sulfoxide (DMSO) and stored in the art at. −20° C. The stock solutions were diluted with DMSO to a concentration of ≦0.1 mM prior to addition to the aqueous medium. The final concentration of DMSO in the assay medium was generally 2%.
Membranes (^˜80 μg protein per tube) were incubated for one hour at 25° C. in a total volume of 0.5 ml of a buffer solution consisting of […] tris hydrochloride and 10 mM MgCl2 at pH 7.4. Test drugs were dissolved in DMSO and added in 10 μl aliquots, resulting in a final DMSO concentration of 2%. Non-specific binding was defined using 20 μM 2-chloroadenosine. Filtration was carried out using a Brandel Cell Harvester, as above, using the tris.HCl/MgCl2 buffer recited hereinabove as the washing buffer.
(§2) At least six different concentrations spanning three orders of magnitude, adjusted appropriately for the IC50 of each compound, were used.

Iα polypeptide = molecular target: T2, Iα polypeptide (Homo sapiens, UniProt P13569); experiment: Phosphatidylserine liposome aggregation driven by Iα polypeptide; format: biochemical; details: 0.5 μg/ml (0.18 μM) Iα; for Effect on PS liposome aggregation driven by Iα: 2-thio-CPX up to 1 μM, IBMX up to 15 μM
T2 construct: made in house; host or cells: chemical solid-phase synthesis (Yale University)
Description: Liposome aggregation assay: Phosphatidylserine (“PS”, obtained from Avanti) was dissolved in chloroform, and small unilamellar liposomes were prepared by the extrusion process known in the art. A Lipex machine was used to extrude the PS in a buffer consisting of 10 mM Na-HEPES, pH 7.2 and 1 mM EDTA. The liposomes were diluted to a final optical density at 540 nm of 0.01 and incubated with different concentrations of the different polypeptides and/or chloride ion efflux-activating compounds.

[1] = molecular target: T3, CFTR polypeptide Iα [SEQ ID NO:1] (Homo sapiens, UniProt P13569); experiment: 3H-CPX binding to Iα polypeptide (dot blot filter binding, displacement)
T3 construct: made in house; host or cells: chemical solid-phase synthesis (Yale University)
Description: CPX was used as a representative compound known to activate chloride ion efflux from ΔF508 mutant cells. Stock solutions of CPX were prepared in DMSO in the millimolar concentration range. […] For displacement studies, unlabeled CPX, or other xanthine antagonists and nucleotides, were added to the incubation mixture before the radioactive probe. The mixture was then filtered through a nitrocellulose (NC) membrane (Schleicher & Schuell) by using a standard dot blot apparatus. […] The dot blots were then washed five times with 200 μl TRIS buffer-NaCl solutions (50 mM TRIS pH=7.0, 150 mM NaCl), radioactive spots were cut out, and the total was radioactivity determined by liquid scintillation counting.

CFPAC cells [2] = experiment: [36Cl]- efflux from CFPAC cells
CFPAC cells [3] = details: read from the graphs
CFPAC cells [4] = details: U.S. Pat. No. 5,366,977 / Eidelman et al.; cited from earlier work
A1-adenosine receptor = molecular target: T4, A1-adenosine receptor (Rattus norvegicus, UniProt P25099); experiment: Inhibition of [3H]N6-phenylisopropyladenosine binding to A1 receptors; details: for Ki: rat cerebral cortex membranes, 1 nM [3H]PIA, read-out: Ki, μM(A1)
T4 construct: Rat cerebral cortical membranes and striatal membranes were prepared; from tissue; host or cells: rat cerebral cortex membranes
T4 sequence (P25099 1-326): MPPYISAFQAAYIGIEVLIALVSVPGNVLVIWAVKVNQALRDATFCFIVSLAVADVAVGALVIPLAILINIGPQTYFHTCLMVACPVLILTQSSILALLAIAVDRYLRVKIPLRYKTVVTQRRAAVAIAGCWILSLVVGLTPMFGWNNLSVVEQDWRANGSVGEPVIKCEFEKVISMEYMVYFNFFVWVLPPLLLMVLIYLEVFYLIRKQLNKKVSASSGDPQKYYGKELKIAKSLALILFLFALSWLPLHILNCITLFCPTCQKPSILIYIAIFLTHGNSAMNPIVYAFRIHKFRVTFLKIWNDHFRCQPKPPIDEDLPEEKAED
Description: as §1
Inhibition of binding of 1 nM [^3H]N^6-phenylisopropyladenosine (Dupont NEN, Boston, Mass.) to A1 receptors in rat cerebral cortex membranes was measured as described in Schwabe et al., Naunyn-Schmiedeberg's Arch. […] Membranes (^˜100 μg protein per tube) were incubated for 1.5 hours at 37° C. in a total volume of 0.5 ml of 50 mM tris hydrochloride at pH 7.4. Test drugs were dissolved in DMSO and added in 10 μl aliquots, resulting in a final DMSO concentration of 2%. Bound and free radioligand were separated by addition of 3 ml of a buffer containing 50 mM tris hydrochloride, at pH 7.4 at 5° C., followed by vacuum filtration using a Brandel Cell Harvester (Brandel, Gaithersburg, Md.) and a Whatman GF/B glass fiber filter with additional washes totaling 9 ml of buffer. Non-specific binding was determined with 10 μM 2-chloroadenosine.
as §2

T1 sequence (P30543 whole entry): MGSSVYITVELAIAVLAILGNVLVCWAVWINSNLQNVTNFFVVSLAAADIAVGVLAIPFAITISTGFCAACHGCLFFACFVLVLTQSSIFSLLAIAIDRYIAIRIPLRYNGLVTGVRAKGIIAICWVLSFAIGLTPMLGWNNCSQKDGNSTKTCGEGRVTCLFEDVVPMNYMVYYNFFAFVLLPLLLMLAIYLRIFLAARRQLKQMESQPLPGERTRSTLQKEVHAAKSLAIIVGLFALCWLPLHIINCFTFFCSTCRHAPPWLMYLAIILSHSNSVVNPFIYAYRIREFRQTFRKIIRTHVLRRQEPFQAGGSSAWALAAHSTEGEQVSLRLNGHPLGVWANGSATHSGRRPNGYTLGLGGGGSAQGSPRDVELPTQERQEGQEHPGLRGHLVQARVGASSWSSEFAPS
T3 sequence (P13569 with tags, fused parts or gaps): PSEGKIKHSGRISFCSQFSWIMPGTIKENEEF
T2 sequence (P13569 with tags, fused parts or gaps): as above

Row | Displacement of 3H-CPX binding to Iα [1] | Concentration at maximum rate and extent of Iα-driven liposome aggregation (Iα polypeptide) [nM] | Affinity for A1 receptor (A1-adenosine receptor) | Kd ([1]; Scatchard plot, n=4, 100 nM Iα) [nM] | Compound | Ki (A2a-adenosine receptor) [µM] | Effect on PS liposome aggregation driven by Iα (Iα polypeptide) | Conc. max. (nM): concentration at maximum impact upon chloride efflux (CFPAC cells [2]) | thresh (nM): minimum concentration required to detect an effect upon chloride efflux (CFPAC cells [2]) [nM] | Efflux rate as compared to control (FIGS. 9-12) (CFPAC cells [3]) [%] | Activation of chloride efflux from CF cells (words, prior disclosure) (CFPAC cells [4]) | Efflux rate as compared to control (FIGS. 9-12) (CFPAC cells [2]; read from the graphs) [%] | Ki (A1-adenosine receptor) [µM] | % control: chloride efflux at minimum detection relative to control (CFPAC cells [2]; at threshold concentration)
1 |  |  |  |  | Cn1c(=O)c2[nH]cnc2n(C)c1=O [Compound 1, theophylline, reference compound] |  |  | 100 nM | 1 | 200 |  |  |  | 
2 | Displacement of binding was effected | 100 | high affinity | 69 ± 27 | CCCn1c(=O)c2[nH]c(C3CCCC3)nc2n(CCC)c1=O [Compound 5, 1,3-dipropyl-8-cyclopentylxanthine, reference compound] |  |  | 30 nM | 1 |  | promotes chloride efflux | 200 |  | 
3 | not effected |  |  |  | CCCn1c(=O)c2[nH]c(C3CCCC3)nc2n(CCC)c1=S [Compound 8, 2-thio-8-cylcopentyl-1,3-dipropylxanthine, reference compound] | 0.31 | entirely inactive | >>10^4 nM |  |  | ineffective |  | 0.00066 | 
4 |  |  |  |  | CCCn1c(=O)c2[nH]c(C34CC5CC(CC3C5)C4)nc2n(CCC)c1=O [Compound 12, 1,3-dipropyl-8-noradamantylxanthine, reference compound] | 0.38 |  | 10 nM | 1 |  | ineffective |  | 0.0013 | 120% and 120 ± 5%

Row | Compound | Displacement of 3H-CPX binding to Iα [1] | Concentration at maximum rate and extent of Iα-driven liposome aggregation (Iα polypeptide) [nM] | Affinity for A1 receptor (A1-adenosine receptor) | Kd ([1]; Scatchard plot, n=4, 100 nM Iα) [nM] | Ki (A2a-adenosine receptor) [µM] | Effect on PS liposome aggregation driven by Iα (Iα polypeptide) | Conc. max. (nM): concentration at maximum impact upon chloride efflux (CFPAC cells [2]) | thresh (nM): minimum concentration required to detect an effect upon chloride efflux (CFPAC cells [2]) [nM] | Efflux rate as compared to control (FIGS. 9-12) (CFPAC cells [3]) [%] | Activation of chloride efflux from CF cells (words, prior disclosure) (CFPAC cells [4]) | Efflux rate as compared to control (FIGS. 9-12) (CFPAC cells [2]; read from the graphs) [%] | Ki (A1-adenosine receptor) [µM] | % control: chloride efflux at minimum detection relative to control (CFPAC cells [2]; at threshold concentration)
5 | 3-isobutylmethyl xanthine [Compound 3] | not effected |  |  |  | 16 | entirely inactive |  |  |  |  |  |  | 

From patent US20030114375A1, “Method for treating cystic fibrosis” (The Government of the USA, Dept of Health and Human …, priority 1994, published 2003)
